For experiment [1], the system named is HMLER and HCC38 CD44^Lo cells. The experiment is described as follows: Flow cytometry of chemotherapy-induced CD44^Lo to CD44^Hi plasticity. The experiment is classed as cell-based, human. To be noted: one dose of chemotherapy for 72 hours. The text has this:
Cells were stained and fixed as with DHT treatment.
Using purified populations of CD44^Lo cells (with no CD44^Hi fraction) the effects of chemotherapy on cellular plasticity was investigated using flow cytometry.

The subject of the next experiment is ELX12-58 PDX model. The experiment can be described thus: ELX12-58 PDX model with PEG-Doxorubicin or Cisplatin and Seviteronel (FIG. 15). It is filed as in vivo, NSG female mice. Conditions: ELX-12-58 PDX. The text has this:
Freshly cut tumour chunks derived from a previously expanded tumour (ELX12-58 PDX model) were transferred into the mammary fat pad of NSG female mice. 15 animals were enrolled per treatment arm. Tumour size was monitored by caliper measurement as previously described. At the time tumour size reached 50-150 mm^3 animals were randomized into treatment arms: Vehicle (Veh), PEG-Doxorubicin (PEG-Dox) and PEG-Dox+Sev. Drug preparation and treatment administration was followed as previously described for the first round of treatment. PEG-Dox (Liposomal Doxorubicin Sun. R:202827) was administrated by weekly injections to a final concentration of 4 mg/kg. At treatment end-point animals were harvested and primary tumour, lymph node metastasis (if present), lung and liver were collected to generate FFPEs for histopathology analysis. […] Treatment was extended for 2 additional weeks, following the 3rd dose of chemotherapy, administrating a total of 5 EPG-Dox injections for these animals. Animals were followed up for 2.5 months, culling mice before if reached ethical end-point. Primary tumour and organs to determine metastatic burden were collected.

Results on one compound are retold here after patent publication US12697322B2, “Methods of treating cancer using androgen receptor antagonists” (Garvan Institute of Medical Research, priority 2019, dated 2026).

Regarding `N.N.[Cl][Pt][Cl]` [Cisplatin], the “induction of CD44^Lo-to-CD44^Hi transition by chemotherapy” value in experiment [1] was “induce CD44^Lo cells to transition to the CD44^Hi state”. For the same compound, the tumour burden entry with ELX12-58 PDX model is listed as “did not reduce ELX-12-58 tumour burden”.
